According to patent EP1650209A1, “Griseusin derivatives and their use as antitumor agents” (Oncotest GmbH, priority 2004, dated 2006):
Values after ≈ are worked out from the molar mass of the structure shown.

Assays:
Assay in all cases: Clonogenic assay, colony formation of tumor stem cells from xenografts
Format in all cases: cell-based, human
CXF 1103 = conditions: Colon, xenograft CXF 1103, colony formation
Protocol: (§1) Using various human cancer xenografts in vitro, the concentrations of compound B which inhibit formation of tumor colonies of tumor stem cells by 50% (IC50) and 70% (IC70) are determined in a clonogenic assay. Specifically, each solid tumor of bladder cancer (BXF 1036 and BXF 1299), cervical cancer (CEXF 633 and CEXF 773), colic cancer (CXF 1103, CXF 158, CXF 1729, CXF 264 and CXF 280), gastric cancer (GXF 251 and GXF 97), head and neck cancer (HNXF 536), liver cancer (LIXF 575), non small cell lung cancer comprising adeno, squamous epithelium and large cell carcinoma (LXFA 1012, LXFA 289, LXFA 297, LXFA 526, LXFA 592, LXFA 629, LXFA 677, LXFE 409, LXFL 1072, LXFL 430LX and LXFL 529), small cell lung cancer (LXFS 650), mammary cancer (MAXF 1162, MAXF 1384, MAXF 401, MAXF 449, MAXF 574, MAXF 583, MAXF 713 and MAXF 857), melanoma (MEXF 1341, MEXF 462, MEXF 535 and MEXF 989), ovary cancer (OVXF 899), pancreatic cancer (PAXF 546 and PAXF 736), prostate cancer (DU-145 and PC3M), pleuramesothelioma (PXF 1752), renal cancer (RXF 1220, RXF 1393, RXF 393, RXF 631 and RXF 944LX), and sarcoma (SXF 1301 and SXF 463) engrafted on RPMI nu/nu thymus aplastic nude mice were explanted, disaggregated by mincing and enzymatic digestion for 50 minutes using 125 U/mL DNAse I, 41 U/mL collagenase IV, 100 U/ml hyaluronidase III, and 1 U/mL dispase I, and passed through sieves of 200 µm and 50 µm mesh size and washed twice with sterile PBS-buffer to remove cell aggregated from single cells. The clonogenic assay was performed in a 24 multiwell format. Each of the resulting single cell suspensions was added at a density of 2·10^4 to 6·10^4 cells per well to 0.2 ml of Iscove's Modified Dulbecco's Medium (IMDM) containing 20% fetal calf serum and 0.01% gentamicin supplemented with 0.4% (w/v) agar, and plated onto a bottom layer consisting of the same culture medium containing 0.75% (w/v) agar. After 24 hours IMDM containing 20% fetal calf serum and 0.01 % gentamicin, together with a test compound, was added there to. Then, the plate was incubated at 37°C for 10 to 20 days in a humidified atmosphere of air containing 7.5% CO2. Within this period, in vitro tumor growth led to the formation of colonies with a diameter of > 50µm. Colony counts were performed with an automatic image analysis system (OMNICON 3600). 24 hours prior to evaluation, vital colonies were stained with a vital staining dye. Therefore, 100 µl of a sterile aqueous solution of 2-(4-iodophenyl)-3-(4-nitrophenyl)-5-phenyltetrazolium chloride (1 mg/ml) were added to each well of the plate, and plates were incubated for 24 hours at 37°C in a humidified atmosphere of air containing 7.5% CO2. Inhibition of colony formation was expressed as test versus untreated control (T/C-value [%]). IC50 and IC70 values were determined by plotting compound concentration versus cell viability. Table 3: Inhibition of Colony Formation of Tumor Stem Cells by griseusin derivative B

CXF 264 = conditions: Colon, xenograft CXF 264, colony formation
Protocol: as §1

CXF 280 = conditions: Colon, xenograft CXF 280, colony formation
Protocol: as §1

GXF 251 = conditions: Stomach, xenograft GXF 251, colony formation
Protocol: as §1

GXF 97 = conditions: Stomach, xenograft GXF 97, colony formation
Protocol: as §1

LIXF 575 = conditions: Liver, xenograft LIXF 575, colony formation
Protocol: as §1

LXFA 289 = conditions: Lung, non small cell, xenograft LXFA 289, colony formation
Protocol: as §1

MAXF 1162 = conditions: Breast, xenograft MAXF 1162, colony formation
Protocol: as §1

MAXF 449 = conditions: Breast, xenograft MAXF 449, colony formation
Protocol: as §1

MAXF 857 = conditions: Breast, xenograft MAXF 857, colony formation
Protocol: as §1

PXF 1752 = conditions: Pleuramesothelio, xenograft PXF 1752, colony formation
Protocol: as §1

RXF 944LX = conditions: Kidney, xenograft RXF 944LX
Protocol: as §1

SXF 1301 = conditions: Sarcoma, xenograft SXF 1301, colony formation
Protocol: as §1

SXF 463 = conditions: Sarcoma, xenograft SXF 463, colony formation
Protocol: as §1

**Q.** Which IC50 (CXF 1103) does the source give for `C[C@@H]1CC(=O)[C@@H](O)[C@]2(O1)O[C@@H]1CC(=O)O[C@@H]1C1=C2C(=O)c2c(O)cccc2C1=O` [Compound B, 4'-dehydro-deacetylgriseusin A] here?
**A.** 0.173 µg/mL (≈ 0.432 µM)

**Q.** What about the IC70 (CXF 1103) of the same compound?
**A.** 0.529 µg/mL (≈ 1.32 µM)

**Q.** What about the IC50 (CXF 264) of the same compound?
**A.** 0.103 µg/mL (≈ 0.257 µM)

**Q.** What about the IC70 (CXF 264) of the same compound?
**A.** 0.215 µg/mL (≈ 0.537 µM)

**Q.** And the IC50 (CXF 280)?
**A.** 0.379 µg/mL (≈ 0.947 µM)

**Q.** And the IC70 (CXF 280)?
**A.** 0.609 µg/mL (≈ 1.52 µM)

**Q.** What about the IC50 (GXF 251) of the same compound?
**A.** 0.333 µg/mL (≈ 0.832 µM)

**Q.** And the IC70 (GXF 251)?
**A.** 0.677 µg/mL (≈ 1.69 µM)

**Q.** What about the IC50 (GXF 97) of the same compound?
**A.** 0.300 µg/mL (≈ 0.749 µM)

**Q.** What about the IC70 (GXF 97) of the same compound?
**A.** 0.495 µg/mL (≈ 1.24 µM)

**Q.** And the IC50 (LIXF 575)?
**A.** 0.616 µg/mL (≈ 1.54 µM)

**Q.** What about the IC70 (LIXF 575) of the same compound?
**A.** 0.764 µg/mL (≈ 1.91 µM)

**Q.** What about the IC50 (LXFA 289) of the same compound?
**A.** 0.218 µg/mL (≈ 0.545 µM)

**Q.** What about the IC70 (LXFA 289) of the same compound?
**A.** 0.425 µg/mL (≈ 1.06 µM)

**Q.** What about the IC50 (MAXF 1162) of the same compound?
**A.** 0.182 µg/mL (≈ 0.455 µM)

**Q.** And the IC70 (MAXF 1162)?
**A.** 0.362 µg/mL (≈ 0.904 µM)

**Q.** And the IC50 (MAXF 449)?
**A.** 0.400 µg/mL (≈ 0.999 µM)

**Q.** What about the IC70 (MAXF 449) of the same compound?
**A.** 0.648 µg/mL (≈ 1.62 µM)

**Q.** And the IC50 (MAXF 857)?
**A.** 1.449 µg/mL (≈ 3.62 µM)

**Q.** What about the IC70 (MAXF 857) of the same compound?
**A.** 1.975 µg/mL (≈ 4.93 µM)

**Q.** What about the IC50 (PXF 1752) of the same compound?
**A.** 0.811 µg/mL (≈ 2.03 µM)

**Q.** What about the IC70 (PXF 1752) of the same compound?
**A.** 1.253 µg/mL (≈ 3.13 µM)

**Q.** What about the IC50 (RXF 944LX) of the same compound?
**A.** 0.116 µg/mL (≈ 0.29 µM)

**Q.** What about the IC70 (RXF 944LX) of the same compound?
**A.** 0.171 µg/mL (≈ 0.427 µM)

**Q.** What about the IC50 (SXF 1301) of the same compound?
**A.** 0.328 µg/mL (≈ 0.819 µM)

**Q.** What about the IC70 (SXF 1301) of the same compound?
**A.** 0.517 µg/mL (≈ 1.29 µM)

**Q.** What about the IC50 (SXF 463) of the same compound?
**A.** 0.235 µg/mL (≈ 0.587 µM)

**Q.** And the IC70 (SXF 463)?
**A.** 0.334 µg/mL (≈ 0.834 µM)
